From paper PMC9029089, “1,5-Disubstituted Acylated 2-Amino-4,5-dihydroimidazoles as a New Class of Retinoic Acid Receptor–Related Orphan Receptor (ROR) Inhibitors” (International Journal of Molecular Sciences, 2022)
Read-outs that look alike come from different tables or passages of the source.

How the values were obtained:
Format in all cases: cell-based
RORγ [1] = target: T1, RORγ (Mus musculus, UniProt P51450); assay: Gal4-RORγ-LBD UAS-luciferase reporter assay in TRex-CHO-K1 cells (doxycycline-stimulated); details: for selectivity towards RORγ over RORα and RORβ: from IC50 values in reporter cells
T1 construct: mRORγ (Pro-261-end); expressed in transfected cells
T1 sequence (P51450 261-516 limits assumed): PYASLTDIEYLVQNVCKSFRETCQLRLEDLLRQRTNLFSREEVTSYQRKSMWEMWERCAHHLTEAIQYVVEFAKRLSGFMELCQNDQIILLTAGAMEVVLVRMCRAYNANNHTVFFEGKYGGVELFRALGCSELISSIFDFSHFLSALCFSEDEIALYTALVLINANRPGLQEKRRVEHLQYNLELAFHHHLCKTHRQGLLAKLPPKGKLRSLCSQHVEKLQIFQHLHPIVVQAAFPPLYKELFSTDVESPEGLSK
Excerpt: (§1) The Gal4-DBD-ROR-LBD fusion proteins were subcloned in the pcDNA4/TO expression vector (Thermo Scientific) and transfected into TRex-CHO-K1 cells (Thermo Scientific) for tetracycline-controlled expression of the corresponding ROR proteins. Transfected cells were selected with hygromycin and Zeocin and individual clones for each of the Gal4-RORγ, Gal4-RORα, and Gal4-RORβ cell lines were isolated using a standard serial dilution protocol. Clones with the highest doxycycline-dependent stimulation of luciferase activity were selected for all functional experiments.
(§2) For screening FIU libraries, cells were resuspended in Ham’s F-12 assay medium containing 2% charcoal-treated FBS and no selection drugs. […] Cells were allowed to attach for 2 h, followed by compound treatment and stimulation with 20 ng/mL doxycycline for an additional 16–20 h. Appropriate solvent controls, negative controls with no doxycycline, and blanks with no cells were included in every plate. Prior to measuring luciferase activity, 6 µL of 0.15 mg/mL resazurin (Cayman Chemical) in PBS were added and cells were incubated for 1 h at 37 °C. Fluorescence intensity was detected at 545 nm excitation/590 nm emission using a CLARIOstar reader (BMGLabtech) as a measure of cell viability, to identify any potential cytotoxic effect of test compounds and mixtures.
(§3) Luminescence was normalized by the fluorescence intensity and the percentage of inhibition was calculated with respect to control cells stimulated with doxycycline in the presence of solvent control (0.1% DMF). All primary screens with individual compounds were performed in triplicate with a final concentration of 5 µg/mL. […] IC50 values were calculated using GraphPrism (GraphPad software).

RORβ = target: T2, RORβ (Rattus norvegicus, UniProt P45446); assay: Gal4-RORβ-LBD UAS-luciferase reporter assay in TRex-CHO-K1 cells (doxycycline-stimulated)
T2 construct: rRORβ (Pro 205-end); expressed in transfected cells
T2 sequence (P45446 205-459 isoform P45446-1): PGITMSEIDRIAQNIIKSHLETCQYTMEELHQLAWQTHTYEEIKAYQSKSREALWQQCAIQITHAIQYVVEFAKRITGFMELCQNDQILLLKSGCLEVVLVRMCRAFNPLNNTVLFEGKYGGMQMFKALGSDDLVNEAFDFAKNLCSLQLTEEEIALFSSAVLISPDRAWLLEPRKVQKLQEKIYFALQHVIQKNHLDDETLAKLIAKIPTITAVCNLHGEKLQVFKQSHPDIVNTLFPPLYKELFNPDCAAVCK
Excerpt: To investigate the transcriptional activity of all three RORs, we generated stable cell lines expressing an UAS-driven luciferase reporter together with the corresponding Gal4-DNA binding domain fused to the ligand binding domains (LBDs) of mRORγ (Pro-261-end), hRORα (Pro-211-end), or rRORβ (Pro 205-end). The Gal4-DBD-ROR-LBD fusion proteins were subcloned in the pcDNA4/TO expression vector (Thermo Scientific) and transfected into TRex-CHO-K1 cells (Thermo Scientific) for tetracycline-controlled expression of the corresponding ROR proteins. Transfected cells were selected with hygromycin and Zeocin and individual clones for each of the Gal4-RORγ, Gal4-RORα, and Gal4-RORβ cell lines were isolated using a standard serial dilution protocol. Clones with the highest doxycycline-dependent stimulation of luciferase activity were selected for all functional experiments. All cell lines were maintained in complete Ham’s F12 medium containing 10% fetal bovine serum (FBS), 10 µg/mL blasticidine, 100 µg/mL hygromycin, and 100 µg/mL Zeocin and were used within 2 months of culture without any loss of doxycycline-dependent stimulation of luciferase activity.
For screening FIU libraries, cells were resuspended in Ham’s F-12 assay medium containing 2% charcoal-treated FBS and no selection drugs. Ten thousand cells per well were seeded in 30 µL of assay medium in 384 white plates with clear bottom (Greiner). Cells were allowed to attach for 2 h, followed by compound treatment and stimulation with 20 ng/mL doxycycline for an additional 16–20 h. Appropriate solvent controls, negative controls with no doxycycline, and blanks with no cells were included in every plate. Prior to measuring luciferase activity, 6 µL of 0.15 mg/mL resazurin (Cayman Chemical) in PBS were added and cells were incubated for 1 h at 37 °C. Fluorescence intensity was detected at 545 nm excitation/590 nm emission using a CLARIOstar reader (BMGLabtech) as a measure of cell viability, to identify any potential cytotoxic effect of test compounds and mixtures. Following the resazurin assay, the medium was removed and 20 µL of BriteLite-Plus luciferase reagent (Perking Elmer) were added; luminescence was measured in a CLARIOstar reader using a 384 aperture spoon and a 0.1 sec measuring time interval.
as §3

RORα = target: T3, RORα (Homo sapiens, UniProt P35398); assay: Gal4-RORα-LBD UAS-luciferase reporter assay in TRex-CHO-K1 cells (doxycycline-stimulated)
T3 construct: hRORα (Pro-211-end); expressed in transfected cells
T3 sequence (P35398 266-523): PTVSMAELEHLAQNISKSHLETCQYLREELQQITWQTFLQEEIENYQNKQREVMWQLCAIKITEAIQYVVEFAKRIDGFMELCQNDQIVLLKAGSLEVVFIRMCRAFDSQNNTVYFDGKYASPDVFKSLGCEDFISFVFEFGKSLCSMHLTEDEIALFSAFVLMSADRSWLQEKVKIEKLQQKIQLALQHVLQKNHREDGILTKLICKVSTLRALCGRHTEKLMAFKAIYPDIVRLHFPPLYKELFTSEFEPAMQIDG
Excerpt: as §1, §2, §3

RORγ [2] = target: T1, RORγ; assay: Gal4-RORγ-LBD UAS-luciferase reporter assay in TRex-CHO-K1 cells (doxycycline-stimulated); details: library 2520, RORγ cells
[3] = read-out: IC50 (μM, N=4) ROR-Gamma, library 2520
[4] = read-out: IC50 (μM, N=4) ROR-Beta, library 2520
[5] = read-out: IC50 (μM, N=4) ROR-Alpha, library 2520
[6] = T-REx-CHO-K1, individual controls 1295.201-307, 5 μg/ml, triplicate, read-out: % Inhibition RORγ 5 μg/ml
[7] = individual controls of library 1295, second confirmatory dose response, Figure 2
[8] = IC50 (μM) (N=4) RORβ, individual controls of library 1295, second confirmatory dose response, Figure 2
[9] = IC50 (μM) (N=4) RORα, individual controls of library 1295, second confirmatory dose response, Figure 2
[10] = IC50 (μM) (N=4) RORγ, individual controls of library 1295, second confirmatory dose response, Figure 2
[11] = T-REx-CHO-K1, read-out: % Inhibition RORγ 5 μg/ml

Compound	inhibition at 5 µg/mL (RORγ [1]; [6]) [%]	IC50 (RORγ [1]; [7]) [µM]	IC50 (RORβ; [8]) [µM]	IC50 (RORα; [9]) [µM]	IC50 (RORγ [1]; [10]) [µM]	inhibition at 5 µg/mL (RORγ [1]; [11]) [%]	also measured
CCC(C(=O)NC1=NCC(Cc2ccc3ccccc3c2)N1CCC1CC2CCC1C2)c1ccccc1 (mixture of isomers) [2520.11]	–	–	–	–	–	–	IC50 (RORγ [1]; [3]): 7.55 ± 0.5 µM; IC50 (RORβ; [4]): 7.3 ± 0.8 µM; IC50 (RORα; [5]): 10.3 ± 0.4 µM; % Inhibition at 4 μM (N=3) (RORγ [2]): 67.6%
CCC(C(=O)NC1=NCC(C(C)CC)N1CC1CCCCC1)c1ccccc1 (mixture of isomers) [2520.15]	–	–	–	–	–	–	IC50 (RORγ [1]; [3]): 4.69 ± 0.2 µM; IC50 (RORβ; [4]): 3.66 ± 0.3 µM; IC50 (RORα; [5]): 5.97 ± 0.2 µM; % Inhibition at 4 μM (N=3) (RORγ [2]): 43.6%
CCC(C(=O)NC1=NCC(Cc2ccccc2)N1CC1CCCCC1)c1ccccc1 (mixture of isomers) [2520.27]	–	–	–	–	–	–	IC50 (RORγ [1]; [3]): 4.8 ± 0.2 µM; IC50 (RORβ; [4]): 4.89 ± 0.3 µM; IC50 (RORα; [5]): 6.61 ± 0.3 µM; % Inhibition at 4 μM (N=3) (RORγ [2]): 97.7%
CC(C)C(=O)NC1=NCC(Cc2ccccc2)N1CCC(C)c1ccccc1 (mixture of isomers) [2520.28]	–	–	–	–	–	–	IC50 (RORγ [1]; [3]): 6.37 ± 0.4 µM; IC50 (RORβ; [4]): 6.17 ± 0.3 µM; IC50 (RORα; [5]): 8.48 ± 0.4 µM; % Inhibition at 4 μM (N=3) (RORγ [2]): 69.8%
CCOc1ccc(CC2CN=C(NC(=O)Cc3ccc(OC)cc3)N2CCC(C)c2ccccc2)cc1 (mixture of isomers) [2520.46]	–	–	–	–	–	–	IC50 (RORγ [1]; [3]): 5.31 ± 0.2 µM; IC50 (RORβ; [4]): 5.46 ± 0.3 µM; IC50 (RORα; [5]): 5.82 ± 0.3 µM; % Inhibition at 4 μM (N=3) (RORγ [2]): 67.3%
O=C(Cc1ccccc1)NC1=NC[C@H](Cc2ccccc2)N1CCc1ccc(-c2ccccc2)cc1 [1295.248]	91.5	5	12.1	10.1	–	–	selectivity towards RORγ over RORα and RORβ (RORγ [1]): two-fold selectivity
O=C(Cc1ccccc1)NC1=NC[C@H](Cc2ccccc2)N1CCC1CCCCC1 [1295.261]	–	–	17.1 ± 2.6	15.3 ± 1.7	17.2 ± 1.6	95.9	–
O=C(Cc1ccccc1)NC1=NC[C@H](Cc2ccccc2)N1CCCC1CCCCC1 [1295.268]	–	6.2 ± 0.6	10.4 ± 0.8	10.1 ± 0.4	–	103	–
CC1CCC(CN2C(NC(=O)Cc3ccccc3)=NC[C@@H]2Cc2ccccc2)CC1 (stereo partly drawn) [1295.269]	–	–	9.3 ± 0.8	9 ± 0.3	5.8 ± 0.6	104	–
O=C(Cc1ccccc1)NC1=NC[C@H](Cc2ccccc2)N1CCC1CC2CCC1C2 (stereo partly drawn) [1295.270]	–	–	9.3 ± 4.9	9 ± 0.2	5.9 ± 3.3	84.6	–
O=C(NC1=NC[C@H](Cc2ccccc2)N1CCc1ccccc1)C1(c2ccccc2)CC1 [1295.272]	96	8 ± 1	14.2 ± 3.6	–	–	–	IC50 (RORα; [7]): 9.8 ± 0.5 µM
CC(CC(=O)NC1=NC[C@H](Cc2ccccc2)N1CCc1ccccc1)c1ccccc1 (stereo partly drawn) [1295.274]	–	–	6.7 ± 0.3	7.4 ± 0.2	4.8	105	selectivity towards RORγ over RORα and RORβ (RORγ [1]): slightly more selective than RORα/β
O=C(CCc1ccccc1)NC1=NC[C@H](Cc2ccccc2)N1CCc1ccccc1 [1295.289]	83.1	7 ± 2.3	12.8 ± 2.7	12.7 ± 0.4	–	–	–
CC(C)(C)C(=O)NC1=NC[C@H](Cc2ccccc2)N1CCc1ccccc1 [1295.298]	94.7	10 ± 1.5	10.8 ± 0.4	–	–	–	IC50 (RORα; [7]): 9.6 ± 0.3 µM
O=C(CC1CCCCC1)NC1=NC[C@H](Cc2ccccc2)N1CCc1ccccc1 [1295.299]	–	–	12.7 ± 4.2	14.1 ± 1.6	8.4 ± 1.5	89.6	–
O=C(CCCC1CCCCC1)NC1=NC[C@H](Cc2ccccc2)N1CCc1ccccc1 [1295.300]	82.8	8.7 ± 2	12.3 ± 0.8	10.2 ± 0.4	–	–	–
O=C(CCC1CCCCC1)NC1=NC[C@H](Cc2ccccc2)N1CCc1ccccc1 [1295.305]	82.8	6.6 ± 1.4	10.4 ± 0.7	10.3 ± 3.7	–	–	–
CC1CCC(C(=O)NC2=NC[C@H](Cc3ccccc3)N2CCc2ccccc2)CC1 (stereo partly drawn) [1295.306]	–	–	9.4 ± 0.6	9.7 ± 1.6	9.5 ± 2.6	97.8	–
O=C(CC1CC2CCC1C2)NC1=NC[C@H](Cc2ccccc2)N1CCc1ccccc1 (stereo partly drawn) [1295.307]	–	–	7.6 ± 0.3	8.9 ± 0.4	5.8 ± 0.4	101	–
